Reference: PMC9235172, “SHTXTHHly, an extracellular secretion platform for the preparation of bioactive peptides and proteins in Escherichia coli” (Microbial Cell Factories, 2022)
Residues, ends and D or L forms follow the SMILES beside them.

What was measured:
E. coli 25922 = E. coli 25922 in MHB, 37 °C, 18 h, OD600, triplicate
Procedure: Fig. 4 Bioactivities determination of the produced AMPs. Different concentrations (0–4000 nM) of cCeA and rCeA (A), or cLL37 and rLL37 (B), were incubated with E. coli 25,922 at 37 °C for 18 h, then the OD600 values were detected. Different concentrations (0–64 μM) of cA12 and rA12 (C) were incubated with U87 MG cells for 8 h, and the number of live cells was measured with the CCK-8 reagent.
Overnight cultures of E. coli 25922 were diluted with fresh Mueller–Hinton Broth (MHB) to an optical density at 600 nm (OD600) at 0.1 and further diluted at 1:100 with fresh MHB. Then 100 μL bacterial suspension was added in triplicate to the 96-well plate. The commercial (APeptides, China) and bio-produced Cecropin A or LL37 were serially diluted with MHB medium and added into the 96-well plate to final concentrations of 2 to 2000 nM. The plate was incubated at 37 °C for 18 h, and the OD600 values were measured with Synergy LX multi-mode reader (BioTek, USA). Broth with bacterial inoculum without AMP and broth alone were used as control groups in which the relative biomass was set as 1 and 0, respectively.

Mo7e cells = test: Mo7e cell proliferation, CCK-8; assay type: cell-based; conditions: 1 pM-100 nM, 4 days, read-out: EC50, promotion of Mo7e cells' proliferation
Procedure: Fig. 5 Bioactivities determination of RGDS, IL-15, and ADH in the SHTXTHHly fusion form. U87 MG cells were incubated with SHTRGDSTHHly/SHTRGESTHHly, mouse anti-S tag antibody, and the second antibody in sequence, then the cell staining was measured by FACS (A). U87 MG cells were incubated with SHTRGDSTHHly/SHTRGESTHHly and transferred into a fibronectin-coated plate. At different times, the attached cells were subjected to the CCK-8 reagent for quantification (B). In other experiments, cells were stained with DiO dye (green) and observed with a fluorescence microscope (C). Mo7e cells were incubated with different concentrations (1 pM-100 nM) of IL-15 and SHTIL15THHly for 4 days, and the cell numbers were measured with a CCK-8 reagent (D). The activities of ADH and SHTADHTHHly were compared using Ethyl Acetoacetate as the substrate and NADH as the co-factor (E). The activity was measured at 340 nm to monitor the decrease in the absorbance of NADH quantitatively. S: Slope. […] PBS is a blank control.
Mo7e cells were plated in a 96-well plate with a cell number of twenty thousand per well. After 4 h incubation, serially diluted IL-15 and SHTIL15THHly were added. After 4 days of incubation, the proliferation of cells was measured using the CCK-8 reagent.

| Compound | minimum inhibitory concentration (MIC) (E. coli 25922) [µM] | EC50 (Mo7e cells) [nM] |
| --- | --- | --- |
| CC[C@H](C)[C@H](NC(=O)CNC(=O)[C@H](CC(=O)O)NC(=O)[C@H](CCCNC(=N)N)NC(=O)[C@@H](NC(=O)[C@H](CC(N)=O)NC(=O)[C@H](CCC(N)=O)NC(=O)CNC(=O)[C@@H](NC(=O)[C@H](CCCCN)NC(=O)[C@H](CCC(=O)O)NC(=O)[C@@H](NC(=O)[C@H](CCCCN)NC(=O)[C@H](CCCCN)NC(=O)[C@H](Cc1ccccc1)NC(=O)[C@H](CC(C)C)NC(=O)[C@H](CCCCN)NC(=O)[C@H](Cc1c[nH]c2ccccc12)NC(=O)[C@@H](N)CCCCN)[C@@H](C)CC)C(C)C)[C@@H](C)CC)C(=O)N[C@H](C(=O)N[C@@H](CCCCN)C(=O)N[C@@H](C)C(=O)NCC(=O)N1CCC[C@H]1C(=O)N[C@@H](C)C(=O)N[C@H](C(=O)N[C@@H](C)C(=O)N[C@H](C(=O)N[C@H](C(=O)NCC(=O)N[C@@H](CCC(N)=O)C(=O)N[C@@H](C)C(=O)N[C@H](C(=O)N[C@@H](CCC(N)=O)C(=O)N[C@H](C(=O)N[C@@H](C)C(=O)N[C@@H](CCCCN)C(=O)O)[C@@H](C)CC)[C@@H](C)O)C(C)C)C(C)C)C(C)C)[C@@H](C)CC [cCeA, Cecropin A] (H-KWKLFKKIEKVGQNIRDGIIKAGPAVAVVGQATQIAK-OH) | 0.85 |  |
| CC[C@H](C)[C@H](NC(=O)[C@H](CCCCN)NC(=O)[C@H](CCC(=O)O)NC(=O)[C@H](CCCCN)NC(=O)[C@H](CO)NC(=O)[C@H](CCCCN)NC(=O)[C@H](CCCNC(=N)N)NC(=O)[C@H](Cc1ccccc1)NC(=O)[C@H](Cc1ccccc1)NC(=O)[C@H](CC(=O)O)NC(=O)CNC(=O)[C@H](CC(C)C)NC(=O)[C@@H](N)CC(C)C)C(=O)NCC(=O)N[C@@H](CCCCN)C(=O)N[C@@H](CCC(=O)O)C(=O)N[C@@H](Cc1ccccc1)C(=O)N[C@@H](CCCCN)C(=O)N[C@@H](CCCNC(=N)N)C(=O)N[C@H](C(=O)N[C@H](C(=O)N[C@@H](CCC(N)=O)C(=O)N[C@@H](CCCNC(=N)N)C(=O)N[C@H](C(=O)N[C@@H](CCCCN)C(=O)N[C@@H](CC(=O)O)C(=O)N[C@@H](Cc1ccccc1)C(=O)N[C@@H](CC(C)C)C(=O)N[C@@H](CCCNC(=N)N)C(=O)N[C@@H](CC(N)=O)C(=O)N[C@@H](CC(C)C)C(=O)N[C@H](C(=O)N1CCC[C@H]1C(=O)N[C@@H](CCCNC(=N)N)C(=O)N[C@H](C(=O)N[C@@H](CCC(=O)O)C(=O)N[C@@H](CO)C(=O)O)[C@@H](C)O)C(C)C)[C@@H](C)CC)C(C)C)[C@@H](C)CC [cL3, LL37] | 1.87 |  |
| IL-15: control monomeric IL-15 |  | 0.294 |
